According to PubChem BioAssay (NCI):
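GI50: concentration for 50% inhibition of growth. The concentration for full growth arrest is given as TGI.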

Key:
Experiment in all cases: inhibition of tumour cell growth, NCI panel, 384-well format
M14 melanoma = tested on: M14 melanoma
SK-MEL-28 melanoma = tested on: SK-MEL-28 melanoma
CCRF-CEM leukemia = tested on: CCRF-CEM leukemia
NCI-H460 NSCLC = tested on: NCI-H460 NSCLC
U251 glioblastoma = tested on: U251 glioblastoma
UACC-257 melanoma = tested on: UACC-257 melanoma
RPMI-8226 leukemia = tested on: RPMI-8226 leukemia
OVCAR-3 ovarian = tested on: OVCAR-3 ovarian
CAKI-1 renal = tested on: CAKI-1 renal
LOX IMVI melanoma = tested on: LOX IMVI melanoma
SK-OV-3 ovarian = tested on: SK-OV-3 ovarian
SNB-19 CNS = tested on: SNB-19 CNS
PC-3 prostate = tested on: PC-3 prostate
IGROV1 ovarian = tested on: IGROV1 ovarian
NCI-H23 lung = tested on: NCI-H23 lung
MDA-MB-468 breast = tested on: MDA-MB-468 breast
NCI/ADR-RES ovarian = tested on: NCI/ADR-RES ovarian
A498 renal = tested on: A498 renal
SF-295 CNS = tested on: SF-295 CNS
BT-549 breast = tested on: BT-549 breast
SF-539 CNS = tested on: SF-539 CNS
NCI-H226 lung = tested on: NCI-H226 lung
MALME-3M melanoma = tested on: MALME-3M melanoma
MDA-MB-435 melanoma = tested on: MDA-MB-435 melanoma
HT29 colon = tested on: HT29 colon
SN12C renal = tested on: SN12C renal
OVCAR-8 ovarian = tested on: OVCAR-8 ovarian
NCI-H522 lung = tested on: NCI-H522 lung
HL-60(TB) leukemia = tested on: HL-60(TB) leukemia
HCT-116 colon = tested on: HCT-116 colon
MOLT-4 leukemia = tested on: MOLT-4 leukemia
HCC-2998 colon = tested on: HCC-2998 colon
HOP-92 NSCLC = tested on: HOP-92 NSCLC
SNB-75 CNS = tested on: SNB-75 CNS
UACC-62 melanoma = tested on: UACC-62 melanoma
UO-31 renal = tested on: UO-31 renal
OVCAR-4 ovarian = tested on: OVCAR-4 ovarian
KM12 colon = tested on: KM12 colon
EKVX NSCLC = tested on: EKVX NSCLC
HOP-62 NSCLC = tested on: HOP-62 NSCLC
SR leukemia = tested on: SR leukemia
T-47D breast = tested on: T-47D breast
K-562 leukemia = tested on: K-562 leukemia
DU-145 prostate = tested on: DU-145 prostate
HCT-15 colon = tested on: HCT-15 colon
SF-268 CNS = tested on: SF-268 CNS
MDA-MB-231 breast = tested on: MDA-MB-231 breast
SW-620 colon = tested on: SW-620 colon
HS 578T breast = tested on: HS 578T breast
786-0 renal = tested on: 786-0 renal
NCI-H322M lung = tested on: NCI-H322M lung
MCF7 breast = tested on: MCF7 breast
A549 NSCLC = tested on: A549 NSCLC
COLO 205 colon = tested on: COLO 205 colon
ACHN renal = tested on: ACHN renal
SK-MEL-5 melanoma = tested on: SK-MEL-5 melanoma
TK-10 renal = tested on: TK-10 renal
RXF 393 renal = tested on: RXF 393 renal

Q: With `Cc1nc2ccc(NC(=O)CCNC(=O)CCCc3ccc(CC(C(=O)O)C(=O)O)cc3)cc2s1` as the compound, how does the GI50 (M14 melanoma) read?
A: > 100 µM

Q: What about the TGI (M14 melanoma) of the same compound?
A: > 100 µM

Q: What about the GI50 (SK-MEL-28 melanoma) of the same compound?
A: > 100 µM

Q: And the TGI (SK-MEL-28 melanoma)?
A: > 100 µM

Q: And the GI50 (CCRF-CEM leukemia)?
A: > 100 µM

Q: What about the TGI (CCRF-CEM leukemia) of the same compound?
A: > 100 µM

Q: And the GI50 (NCI-H460 NSCLC)?
A: > 100 µM

Q: What about the TGI (NCI-H460 NSCLC) of the same compound?
A: > 100 µM

Q: And the GI50 (U251 glioblastoma)?
A: > 100 µM

Q: And the TGI (U251 glioblastoma)?
A: > 100 µM

Q: And the GI50 (UACC-257 melanoma)?
A: > 100 µM

Q: What about the TGI (UACC-257 melanoma) of the same compound?
A: > 100 µM

Q: And the GI50 (RPMI-8226 leukemia)?
A: > 100 µM

Q: What about the TGI (RPMI-8226 leukemia) of the same compound?
A: > 100 µM

Q: What about the GI50 (OVCAR-3 ovarian) of the same compound?
A: > 100 µM

Q: What about the TGI (OVCAR-3 ovarian) of the same compound?
A: > 100 µM

Q: And the GI50 (CAKI-1 renal)?
A: > 100 µM

Q: And the TGI (CAKI-1 renal)?
A: > 100 µM

Q: And the GI50 (LOX IMVI melanoma)?
A: > 100 µM

Q: What about the TGI (LOX IMVI melanoma) of the same compound?
A: > 100 µM

Q: What about the GI50 (SK-OV-3 ovarian) of the same compound?
A: > 100 µM

Q: And the TGI (SK-OV-3 ovarian)?
A: > 100 µM

Q: What about the GI50 (SNB-19 CNS) of the same compound?
A: > 100 µM

Q: What about the TGI (SNB-19 CNS) of the same compound?
A: > 100 µM

Q: What about the GI50 (PC-3 prostate) of the same compound?
A: > 100 µM

Q: And the TGI (PC-3 prostate)?
A: > 100 µM

Q: And the GI50 (IGROV1 ovarian)?
A: > 100 µM

Q: And the TGI (IGROV1 ovarian)?
A: > 100 µM

Q: And the GI50 (NCI-H23 lung)?
A: > 100 µM

Q: And the TGI (NCI-H23 lung)?
A: > 100 µM

Q: And the GI50 (MDA-MB-468 breast)?
A: > 100 µM

Q: What about the TGI (MDA-MB-468 breast) of the same compound?
A: > 100 µM

Q: What about the GI50 (NCI/ADR-RES ovarian) of the same compound?
A: > 100 µM

Q: What about the TGI (NCI/ADR-RES ovarian) of the same compound?
A: > 100 µM

Q: What about the GI50 (A498 renal) of the same compound?
A: > 100 µM

Q: What about the TGI (A498 renal) of the same compound?
A: > 100 µM

Q: What about the GI50 (SF-295 CNS) of the same compound?
A: > 100 µM

Q: And the TGI (SF-295 CNS)?
A: > 100 µM

Q: What about the GI50 (BT-549 breast) of the same compound?
A: > 100 µM

Q: And the TGI (BT-549 breast)?
A: > 100 µM

Q: And the GI50 (SF-539 CNS)?
A: > 100 µM

Q: And the TGI (SF-539 CNS)?
A: > 100 µM

Q: And the GI50 (NCI-H226 lung)?
A: > 100 µM

Q: And the TGI (NCI-H226 lung)?
A: > 100 µM

Q: What about the GI50 (MALME-3M melanoma) of the same compound?
A: > 100 µM

Q: And the TGI (MALME-3M melanoma)?
A: > 100 µM

Q: And the GI50 (MDA-MB-435 melanoma)?
A: > 100 µM

Q: And the TGI (MDA-MB-435 melanoma)?
A: > 100 µM

Q: What about the GI50 (HT29 colon) of the same compound?
A: > 100 µM

Q: And the TGI (HT29 colon)?
A: > 100 µM

Q: And the GI50 (SN12C renal)?
A: > 100 µM

Q: What about the TGI (SN12C renal) of the same compound?
A: > 100 µM

Q: What about the GI50 (OVCAR-8 ovarian) of the same compound?
A: > 100 µM

Q: What about the TGI (OVCAR-8 ovarian) of the same compound?
A: > 100 µM

Q: What about the GI50 (NCI-H522 lung) of the same compound?
A: > 100 µM

Q: And the TGI (NCI-H522 lung)?
A: > 100 µM

Q: And the GI50 (HL-60(TB) leukemia)?
A: > 100 µM

Q: And the TGI (HL-60(TB) leukemia)?
A: > 100 µM

Q: What about the GI50 (HCT-116 colon) of the same compound?
A: > 100 µM

Q: And the TGI (HCT-116 colon)?
A: > 100 µM

Q: And the GI50 (MOLT-4 leukemia)?
A: > 100 µM

Q: What about the TGI (MOLT-4 leukemia) of the same compound?
A: > 100 µM

Q: And the GI50 (HCC-2998 colon)?
A: > 100 µM

Q: What about the TGI (HCC-2998 colon) of the same compound?
A: > 100 µM

Q: What about the GI50 (HOP-92 NSCLC) of the same compound?
A: > 100 µM

Q: And the TGI (HOP-92 NSCLC)?
A: > 100 µM

Q: What about the GI50 (SNB-75 CNS) of the same compound?
A: > 100 µM

Q: What about the TGI (SNB-75 CNS) of the same compound?
A: > 100 µM

Q: What about the GI50 (UACC-62 melanoma) of the same compound?
A: > 100 µM

Q: What about the TGI (UACC-62 melanoma) of the same compound?
A: > 100 µM

Q: And the GI50 (UO-31 renal)?
A: > 100 µM

Q: And the TGI (UO-31 renal)?
A: > 100 µM

Q: What about the GI50 (OVCAR-4 ovarian) of the same compound?
A: > 100 µM

Q: What about the TGI (OVCAR-4 ovarian) of the same compound?
A: > 100 µM

Q: And the GI50 (KM12 colon)?
A: > 100 µM

Q: And the TGI (KM12 colon)?
A: > 100 µM

Q: What about the GI50 (EKVX NSCLC) of the same compound?
A: > 100 µM

Q: What about the TGI (EKVX NSCLC) of the same compound?
A: > 100 µM

Q: And the GI50 (HOP-62 NSCLC)?
A: > 100 µM

Q: And the TGI (HOP-62 NSCLC)?
A: > 100 µM

Q: And the GI50 (SR leukemia)?
A: > 100 µM

Q: And the TGI (SR leukemia)?
A: > 100 µM

Q: What about the GI50 (T-47D breast) of the same compound?
A: > 100 µM

Q: And the TGI (T-47D breast)?
A: > 100 µM

Q: And the GI50 (K-562 leukemia)?
A: > 100 µM

Q: What about the TGI (K-562 leukemia) of the same compound?
A: > 100 µM

Q: And the GI50 (DU-145 prostate)?
A: > 100 µM

Q: And the TGI (DU-145 prostate)?
A: > 100 µM

Q: And the GI50 (HCT-15 colon)?
A: > 100 µM

Q: What about the TGI (HCT-15 colon) of the same compound?
A: > 100 µM

Q: What about the GI50 (SF-268 CNS) of the same compound?
A: > 100 µM

Q: And the TGI (SF-268 CNS)?
A: > 100 µM

Q: And the GI50 (MDA-MB-231 breast)?
A: > 100 µM

Q: And the TGI (MDA-MB-231 breast)?
A: > 100 µM

Q: What about the GI50 (SW-620 colon) of the same compound?
A: > 100 µM

Q: What about the TGI (SW-620 colon) of the same compound?
A: > 100 µM

Q: What about the GI50 (HS 578T breast) of the same compound?
A: > 100 µM

Q: And the TGI (HS 578T breast)?
A: > 100 µM

Q: What about the GI50 ([…]-0 renal) of the same compound?
A: > 100 µM

Q: And the TGI (786-0 renal)?
A: > 100 µM

Q: What about the GI50 (NCI-H322M lung) of the same compound?
A: > 100 µM

Q: What about the TGI (NCI-H322M lung) of the same compound?
A: > 100 µM

Q: And the GI50 (MCF7 breast)?
A: > 100 µM

Q: And the TGI (MCF7 breast)?
A: > 100 µM

Q: And the GI50 (A549 NSCLC)?
A: > 100 µM

Q: And the TGI (A549 NSCLC)?
A: > 100 µM

Q: What about the GI50 (COLO 205 colon) of the same compound?
A: > 100 µM

Q: What about the TGI (COLO 205 colon) of the same compound?
A: > 100 µM

Q: What about the GI50 (ACHN renal) of the same compound?
A: > 100 µM

Q: And the TGI (ACHN renal)?
A: > 100 µM

Q: And the GI50 (SK-MEL-5 melanoma)?
A: > 100 µM

Q: What about the TGI (SK-MEL-5 melanoma) of the same compound?
A: > 100 µM

Q: And the GI50 (TK-10 renal)?
A: > 100 µM

Q: What about the TGI (TK-10 renal) of the same compound?
A: > 100 µM

Q: What about the GI50 (RXF 393 renal) of the same compound?
A: > 100 µM

Q: What about the TGI (RXF 393 renal) of the same compound?
A: > 100 µM
